Consider 17 molecules from patent US20220289732A1, “HETEROCYCLIC WDR5 INHIBITORS AS ANTI-CANCER COMPOUNDS” (NOVARTIS AG, priority 2019, published 2022).

Assay [1] deals with wild type MLL1 four-member complex (MLL1-4C) (Homo sapiens, UniProt P61964). Description: MLL1 LC-MS assay (SAH production). The format is biochemical. The following applies: read-out: (b) MLL LCMS Peptide Val.v.1 Qualified AC50. Summed up: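 MLL1-4C (30 nM final) was preincubated 20 min with compound (3-fold dilutions, 8 or 12 points) and SAM in Tris-HCl pH 8.0 buffer. H3K4me0 peptide (histone H3[1-21]-biotin) was then added, giving final 2.5 μM SAM and 10 μM substrate, and reactions ran 120 min at rt. After TFA/d4-SAH quench, SAH was quantified by LC-MS/MS and IC50 fitted from control-normalised activity.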

Assay [2] concerns the target WDR5 (Homo sapiens, UniProt P61964). Description: WDR5 HTRF binding assay. The settings on record: read-out: (a) WDR5 HTRF Pep Val v.1[Inhibitor/IC50]Qualified AC50. A digest of the protocol: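 6 nM WDR5 and 20 nM biotin-MLL1 WIN peptide (3762-3773) were incubated with compound (12-point, 3-fold dilutions) in pH 7.5 Hepes/NaCl/DTT buffer for 20 min at rt. Streptavidin-APC plus anti-His-Eu were then added for 1 hr, with HTRF read at 665/615. IC50 was fit from control-normalized activity; the counter assay used 15 nM biotin-PEG-His peptide.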
A general note: TR-FRET usually uses a lanthanide donor and a delayed reading to cut background.

Assay [3] has as its system MV4-11 cells. Description: MV4-11 6-day cell growth CTG (CellTiter-Glo) assay. Type of assay: cell-based. The settings on record: Homo sapiens, MV4-11, 144 h, 6 days, read-out: (c) MLL/WDR5 cell proliferation assay//MLL/WDR5 proliferation MV4:11 Qualified AC50. Summed up:
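Exponentially growing MV4-11 AML cells (RPMI 1640, 10% FBS) seeded at 300 cells/well with 12-point 1:3 compound dilutions, top final concentration 50 μM. Viability read by CellTiter-Glo luminescence after 6 days at 37° C; % inhibition vs DMSO-only wells fitted to dose-response for IC50.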
(In general: ATP-based viability assays read luminescence as a measure of living cells.)

Regarding `CCOc1cc(CN2CCc3c(cc(CCN4C[C@@H](O)[C@H]4C)cc3-c3ccc(F)nc3C)C2=O)ncc1C#N` [Example 222], the AC50 in assay [1] and in assay [3] was 10 to 1000 nM in each case. The IC50 in assay [2] lay within 10 to 1000 nM.
As for `CCOc1cc([C@H](C)N2CCc3c(cc(Cn4ccnc4C)cc3-c3nc(C)nn3C)C2=O)ncc1C#N` (single isomer, unassigned) [Example 264], the AC50 in assay [1] and in assay [3] was 10 to 1000 nM in each case. In addition, the IC50 in assay [2] is less than 10 nM.
In the case of `CCOc1cc([C@H](C)N2CCc3c(cc(CCN(C)CC)cc3-c3cccnc3C)C2=O)ncc1C#N` [Example 139, (S)-4-ethoxy-6-(1-(7-(2-(ethyl(methyl)amino)ethyl)-5-(2-methylpyridin-3-yl)-1-oxo-3,4-dihydroisoquinolin-2(1H)-yl)ethyl)nicotinonitrile], the AC50 in assay [1] and in assay [3] was 10 to 1000 nM throughout. In addition, in assay [2], the IC50 was less than 10 nM.
With `CNc1nccn1Cc1cc(CN(C)CC(F)F)c2c(c1)C(=O)N([C@@H](C)c1cc(OC)c(F)cn1)CC2` [Example 35, (S)-5-(((2,2-difluoroethyl)(methyl)amino)methyl)-2-(1-(5-fluoro-4-methoxypyridin-2-yl)ethyl)-7-((2-(methylamino)-1H-imidazol-1-yl)methyl)-3,4-dihydroisoquinolin-1(2H)-one], the AC50 in assay [1] and in assay [3] was 10 to 1000 nM each time. For the same molecule, the IC50 in assay [2] was in the range of 10 to 1000 nM.
Turning to `CCOc1cc([C@H](C)N2CCc3c(CN4CC[C@@H](F)C4)cc(Cn4ccnc4NC)cc3C2=O)ncc1F` [Example 14, 2-((S)-1-(4-ethoxy-5-fluoropyridin-2-yl)ethyl)-5-(((R)-3-fluoropyrrolidin-1-yl)methyl)-7-((2-(methylamino)-1H-imidazol-1-yl)methyl)-3,4-dihydroisoquinolin-1(2H)-one], the AC50 in assay [1] and in assay [3] was 10 to 1000 nM each time. Also, the IC50 in assay [2] is 10 to 1000 nM.
Regarding `CCOc1cc([C@H](C)N2CCc3c(CN4CC[C@@H](F)C4)cc(Cn4ccnc4NC)cc3C2=O)ncc1C#N` [Example 11, 4-ethoxy-6-((S)-1-(5-(((R)-3-fluoropyrrolidin-1-yl)methyl)-7-((2-(methylamino)-1H-imidazol-1-yl)methyl)-1-oxo-3,4-dihydroisoquinolin-2(1H)-yl)ethyl)nicotinonitrile], the AC50 in assay [1] and in assay [3] was 10 to 1000 nM throughout. Moreover, the IC50 in assay [2] was less than 10 nM.
On to `CCOc1cc([C@H](C)N2CCc3c(cc(CCN(C)CC)cc3-c3cc(C)cnc3Cl)C2=O)ncc1C#N` [Example 118, (S)-6-(1-(5-(2-chloro-5-methylpyridin-3-yl)-7-(2-(ethyl(methyl)amino)ethyl)-1-oxo-3,4-dihydroisoquinolin-2(1H)-yl)ethyl)-4-ethoxynicotinonitrile], for which the AC50 in assay [1] and in assay [3] was 10 to 1000 nM in each case. Moreover, the IC50 in assay [2] is less than 10 nM.
Regarding `CCOc1cc([C@H](C)N2CCc3c(CN(C)C4COC4)cc(Cn4ccnc4NC)cc3C2=O)ncc1F` [Example 10, (S)-2-(1-(4-ethoxy-5-fluoropyridin-2-yl)ethyl)-5-((methyl(oxetan-3-yl)amino)methyl)-7-((2-(methylamino)-1H-imidazol-1-yl)methyl)-3,4-dihydroisoquinolin-1(2H)-one], the AC50 in assay [1] and in assay [3] was 10 to 1000 nM in each case. Further, the IC50 in assay [2] is less than 10 nM.
On to `CCOc1cc([C@H](C)N2CCc3c(cc(CCN(C)CC)cc3-c3cc(C(F)F)cnc3C)C2=O)ncc1C#N` [Example 177, (S)-6-(1-(5-(5-(difluoromethyl)-2-methylpyridin-3-yl)-7-(2-(ethyl(methyl)amino)ethyl)-1-oxo-3,4-dihydroisoquinolin-2(1H)-yl)ethyl)-4-ethoxynicotinonitrile], for which the AC50 in assay [1] and in assay [3] was 10 to 1000 nM in each case. Moreover, in assay [2], the IC50 is less than 10 nM.
With `CCOc1cc([C@H](C)N2CCc3c(cc(Cn4ccnc4NC)cc3C3CC3)C2=O)ncc1F` [Example 81, (S)-5-cyclopropyl-2-(1-(4-ethoxy-5-fluoropyridin-2-yl)ethyl)-7-((2-(methylamino)-1H-imidazol-1-yl)methyl)-3,4-dihydroisoquinolin-1(2H)-one], the AC50 in assay [1] and in assay [3] was 10 to 1000 nM each time. Also, the IC50 in assay [2] was 10 to 1000 nM.
For the molecule `CCOc1cc(C(C)N2CCc3c(cc(CCN(C)CCF)cc3-c3ccc(F)nc3C)C2=O)ncc1C#N` (stereo not drawn) [Example 236], the AC50 in assay [1] and in assay [3] was 10 to 1000 nM each time. For the same molecule, the IC50 in assay [2] was less than 10 nM.
As for `CCOc1cc([C@H](C)N2CCc3c(cc(CCN(C)CC)cc3-c3cn(CCO)nc3C)C2=O)ncc1C#N` [Example 115, (S)-4-ethoxy-6-(1-(7-(2-(ethyl(methyl)amino)ethyl)-5-(1-(2-hydroxyethyl)-3-methyl-1H-pyrazol-4-yl)-1-oxo-3,4-dihydroisoquinolin-2(1H)-yl)ethyl)nicotinonitrile], the AC50 in assay [1] and in assay [3] was 10 to 1000 nM in each case. The IC50 in assay [2] was less than 10 nM.
In the case of `CCOc1cc(CN2CCc3c(CN4CC(F)(F)C4)cc(Cn4ccnc4NC)cc3C2=O)cnc1C#N` [Example 46, 5-((5((3,3-difluoroazetidin-1-yl)methyl)-7-((2-(methylamino)-1H-imidazol-1-yl)methyl)-1-oxo-3,4-dihydroisoquinolin-2(1H)-yl)methyl)-3-ethoxypicolinonitrile], the AC50 in assay [1] and in assay [3] was 10 to 1000 nM each time. In addition, the IC50 in assay [2] was 10 to 1000 nM.
As to `CCOc1cc([C@H](C)N2CCc3c(cc(CCN(C)CC)cc3-c3cc(C(C)=O)cnc3C)C2=O)ncc1C#N` [Example 185, (S)-6-(1-(5-(5-acetyl-2-methylpyridin-3-yl)-7-(2-(ethyl(methyl)amino)ethyl)-1-oxo-3,4-dihydroisoquinolin-2(1H)-yl)ethyl)-4-ethoxynicotinonitrile], the AC50 in assay [1] and in assay [3] was 10 to 1000 nM throughout. The IC50 in assay [2] is less than 10 nM.
As for `CNc1nccn1Cc1cc(CN(C)C)c2c(c1)C(=O)N([C@@H](C)c1cc(OC)c(C#N)cn1)CC2` [Example 45, (S)-6-(1-(5-((dimethylamino)methyl)-7-((2-(methylamino)-1H-imidazol-1-yl)methyl)-1-oxo-3,4-dihydroisoquinolin-2(1H)-yl)ethyl)-4-methoxynicotinonitrile], the AC50 in assay [1] and in assay [3] was 10 to 1000 nM each time. The IC50 in assay [2] lay in the range of 10 to 1000 nM.
As for `CCOc1cc([C@H](C)N2CCc3c(cc(CCN(C)CC)cc3-c3cn(C)c(=O)c(F)c3C)C2=O)ncc1C#N` [Example 169, (S)-4-ethoxy-6-(1-(7-(2-(ethyl(methyl)amino)ethyl)-5-(5-fluoro-1,4-dimethyl-6-oxo-1,6-dihydropyridin-3-yl)-1-oxo-3,4-dihydroisoquinolin-2(1H)-yl)ethyl)nicotinonitrile], the AC50 in assay [1] and in assay [3] was 10 to 1000 nM each time. Moreover, the IC50 in assay [2] was less than 10 nM.
For `CCOc1cc([C@H](C)N2CCc3c(cc(CCN(C)C4CC4)cc3-c3ccc(F)nc3C)C2=O)ncc1C#N` [Example 229], the AC50 in assay [1] and in assay [3] was 10 to 1000 nM in each case. For the same molecule, the IC50 in assay [2] was less than 10 nM.
